From paper PMC5352362, “Molecular and functional evaluation of a novel HIF inhibitor, benzopyranyl 1,2,3-triazole compound” (Oncotarget, 2016) come the findings set out here.

The structures appear in SMILES notation.

Assay [1] concerns hydroxylated (OH)-HIF-1α at P402 or P564, PHD2, HIF-1β. The assay is described as follows: Western blot of hydroxylated HIF-1α, PHD2 and HIF-1β in A549 cells. It is filed as cell-based, human. To be noted: 1–100 nM, 16 h. As for the experimental part:
Figure 4 Compound 12 increased hydroxylation and proteasome-mediated degradation of HIF-1α (A) A549 cells were treated with Compound 12 (at concentrations of 0 nM, 1 nM, 10 nM, and 100 nM) for 16 h. Cells were fixed with paraformaldehyde; an immunofluorescence assay was then performed using anti-HIF-1α antibodies and Alexa Fluor 488-labeled secondary antibodies (green). Nuclei were stained with DAPI. N, normoxia; H, hypoxia. (B) A549 cells were treated with Compound 12 (10 nM concentration) and exposed to hypoxic conditions for 16 h. Cells were immediately treated with cycloheximide (CHX, 100 μg/mL) for the time indicated, and HIF-1α protein levels were determined by western blotting. β-actin was used as an internal control. Half-life (t1/2) of HIF-1α protein was determined using relative expression levels of HIF-1α. (C) A549 cells were treated with Compound 12 (at concentrations of 0 nM, 1 nM, 10 nM, and 100 nM) for 16 h. The expression levels of HIF-1α, hydroxylated (OH)-HIF-1α at P402 or P564, and PHD2 were determined via western blotting using specific antibodies. N, normoxia; H, hypoxia. (D) A549 cells were transfected with two kinds of small interfering RNAs targeting PHD2 and then treated with Compound 12 under hypoxic exposure for 16 h. Cell lysates were immunoblotted with an anti-HIF-1α and PHD2 antibody. (E) After A549 cells were treated with Compound 12 for 16 h, cells were treated with MG132 (20 μM) for 4 h. Cell lysates were immunoprecipitated (IP) with anti-HIF-1α antibody, and were then immunoblotted (IB) with anti-ubiquitin antibody. Relative levels of ubiquitinated HIF-1α were quantified and graphed. […]
Proteins extracted from cells using PRO-PREP (iNtRon Biotech, South Korea) were separated by SDS-PAGE and transferred to a nitrocellulose membrane (Whatman, Maidstone, UK). […] Antibody binding was detected using an enhanced chemiluminescence (ECL) kit (BioRad, Hercules, CA) according to the manufacturer's instructions. […]
(A western blot detects proteins with antibodies after separation by electrophoresis.)

Assay [2] concerns HUVECs. Nature of the assay: Transwell cell migration assay, VEGF-induced. It is filed as cell-based, human. To be noted: VEGF 20 ng/mL, 24 h. The procedure:
Figure 5 Compound 12 suppressed HIF-1α target gene expression, and confirmation of in vitro results via determination of effects on angiogenesis in vivo (A) A549 cells were treated with Compound 12 (at concentrations of 0 nM, 1 nM, 10 nM, and 100 nM) for 16 h. The mRNA levels of HIF-1α target genes were determined by semiquantitative RT-PCR. β-actin was used as an internal control. D. DMSO vehicle control. N, normoxia; H, hypoxia. (B) A549 cells were treated with serum-reduced culture media containing Compound 12 (at concentrations of 0 nM, 10 nM, and 100 nM) for 16 h. Media supernatant was collected, and secreted VEGF was determined by ELISA after removal of cellular debris. N, normoxia; H, hypoxia. **P < 0.01 versus hypoxia (H) DMSO (D)-treated control. (C) HUVECs were treated with Compound 12, at the indicated concentrations, in the presence of VEGF (20 ng/mL) for 24 h in 1% serum-containing media. […] Cells that migrated through the membrane (8 μm pore size) were stained with hematoxylin and eosin, pictured as shown in upper panel, and counted (graph). *P < 0.05, **P < 0.01 versus VEGF-treated control. […] (F) Compound 12 (0.1 μg and 1 μg dosages) and retinoic acid (RA, positive control) were applied to the ED 4.5 CAM for two days, neovessel formation from the large vessels was observed, and percentages of positive angiogenic eggs (from total eggs tested) were calculated. […]

Regarding `COc1ccc(-c2cn(CC3(C)C=Cc4cc([N+](=O)[O-])ccc4O3)nn2)cc1` (stereo not shown) [Compound 12, 4-(4-methoxyphenyl)-1-((2-methyl-6-nitro-2H-chromen-2-yl)methyl)-1H-1,2,3-triazole], in assay [1], the HIF-1β expression entry is recorded as “did not inhibit”; the PHD2 levels result is recorded as “increased even at the lowest dose (1 nM)”; the “hydroxylation of HIF-1α (P402, P564)” value was “increased hydroxylation of HIF-1α in a dose-dependent manner”. The VEGF-induced endothelial migration entry in assay [2] was “significantly inhibited”.
